From patent US20190160058A1, “METHODS OF TREATMENT WITH SELECTIVE CB2 RECEPTOR AGONISTS” (Arena Pharmaceuticals, Inc., priority 2016, published 2019)
Entries after “also recorded” stand apart in the source; their conditions may differ.

Assays:
[1] = tested on: EAE mouse model; details: in vivo; cited from earlier work
[2] = tested on: ApoE knockout mice; details: cited from earlier work
[3] = tested on: osteoarthritis pain model; test: osteoarthritis pain model; format: in vivo
[4] = biological target: T1, CB2 receptor (Homo sapiens, UniProt P34972); test: internalization of the CB2 receptor in a cell; format: cell-based
Description: In some embodiments, the selective CB2 receptor agonist increases internalization of the CB2 receptor in a cell to at least 75%, at least 80%, at least 85%, at least 90%, at least 95%, at least 96%, at least 97%, at least 98%, or at least about 99% the level of internalization that would occur if the cell were contacted with CP55,940. In some embodiments, the CB2 receptor agonist that increases internalization of the CB2 receptor to at least 90% of CP55,940 is selected from: Compound B, Compound E, Compound G, and Compound H. CP55,940 has the following chemical structure: […]
(§1) Receptor internalization can be measured using a number of methods, including but not limited to measuring a loss of labeled receptor from the cell surface (e.g., using flow cytometry) measuring the appearance of receptors internalized in the cell (e.g., in characteristic punctate intracellular vesicles), and/or measuring the return of receptors recycled to the cell surface. For example, the number, density, and/or staining intensity of granules in the cell can be quantified. Receptor internalization can be measured using any appropriate method known to those of skill in the art. […]

[5] = tested on: preclinical animal model; test: preclinical animal model studies, cardiovascular effects; format: in vivo
[6] = tested on: human CB2 receptor versus the human CB1 receptor; test: selectivity for the human CB2 receptor versus the human CB1 receptor
Procedure: In some embodiments, an agonist compound that is used in the methods described herein has selectivity for the CB2 Receptor. In some embodiments, selectivity refers to the relative in vitro potency of a compound for the CB2 receptor and another receptor. For example, in some embodiments, selectivity refers to the relative in vitro potency of a compound for the CB2 receptor versus the CB1 receptor. In some embodiments, in vitro potency is measured using a second messenger assay. In some embodiments, in vitro potency is measured using a cAMP assay. In some embodiments, selectivity is determined by comparing data generated using a β-arrestin assay. In some embodiments, selectivity is determined by comparing data generated from a GTP-yS binding assay. In some embodiments, selectivity is determined by comparing data generated from a reporter gene assay. In some embodiments, selectivity is determined by comparing data generated for a biomarker. In some embodiments, in vitro potency is quantified as EC50. In some embodiments, selectivity refers to the relative binding affinity of an agonist for the CB2 receptor and another receptor. In some embodiments, binding affinity is quantified as Ki.

[7] = biological target: rat CB2 receptor (Rattus norvegicus, UniProt Q9QZN9); test: CB2 receptor internalization efficacy relative to CP55,940; format: cell-based
Description: (§2) In certain instances, the CB2 receptor agonist compounds identified using the HTRF® assay, the PathHunter-arrestin assay, and the radioligand binding assay can be tested for CB2 receptor internalization to select those agonists that induce robust internalization of the receptor in order to maintain a sufficient level of signaling for sustained in vivo efficacy. In certain embodiments, such agonists are preferred in the methods described herein.
as §1

[8] = biological target: T1, CB2 receptor; test: as above; format: cell-based
Description: as §2, §1

[9] = tested on: paclitaxel-induced neuropathic pain model; test: paclitaxel-induced neuropathic pain model; details: in vivo
[10] = tested on: painful peripheral diabetic neuropathy model; test: painful peripheral diabetic neuropathy model; details: in vivo
[11] = biological target: T1, CB2 receptor; test: CB2 receptor agonism; format: cell-based
Description: Other CB2 receptor agonist compounds can be identified e.g., using the Homogeneous Time-Resolved Fluorescence (HTRF®) Assay for direct cAMP measurement (Gabriel et al., ASSAY and Drug Development Technologies, 1:291-303, 2003) (see, e.g., Example 2 of WO2011/025541). Compounds can be screened for agonism of the CB2 receptor (e.g., human CB2 receptor) using the HTRF® assay for direct cAMP measurement (assay kit sold by Cisbio-US, Inc., Bedford, Mass.; Catalog #62AM4PEC) in recombinant CHO-K1 cells stably transfected with the CB2 receptor. […] The specific signal (i.e., fluorescence resonance energy transfer, FRET) is inversely proportional to the concentration of unlabeled cAMP in the standard or sample. An agonist of the CB2 receptor is detected in the HTRF® assay for direct cAMP measurement when a compound decreases cAMP concentration. […]
CB2 receptor agonist compounds can also be identified using the DiscoveRx PathHunter β-arrestin assay which measures the β-arrestin binding to the CB2 receptor upon its activation (see, e.g., Example 3 of WO2011/025541). […] Binding of β-arrestin to the activated GPCR causes the complementation of the two enzyme fragments, forming an active β-galactosidase enzyme which can be measured using the chemiluminescent PathHunter Flash Detection Kit (DiscoveRx, Fremont, Calif.: catalog #93-0001).

[12] = tested on: healthy human subjects; test: phase 1b multiple ascending dose clinical trial; format: in vivo
Procedure: A phase 1b randomized, double-blind, placebo-controlled multiple ascending dose clinical trial was performed in 36 healthy human subjects to assess the safety, tolerability, and pharmacokinetics of APD371 (Compound B). Doses of 50 mg three times daily (TID), 100 mg TID, and 200 mg TID were administered for 10 days. Subjects were in the clinic for approximately 17 days (referred to as Day −2 to Day 15). Study medication (APD371 or placebo) was administered TID on Days 1-10, and once on Day 11. Each cohort included 12 human subjects, nine of whom were administered APD371 and three of whom were administered placebo.
(§3) Vital signs were measured for blood pressure and heart rate in the supine position after resting for five minutes. 12-lead electrocardiograms were used to measure RR, PR, QRS, QT, QTc, QTcB, and QTcF in the recumbent position after resting for 10 minutes. 5-lead electrocardiograms were used for continuous telemetry, with measurements taken during the last five minutes of a resting period of 14 minutes±1 minute in the supine position. Baseline measurements were taken prior to dosing.

[13] = tested on: healthy human subjects; test: phase 1a single ascending dose clinical trial; format: in vivo
Procedure: A phase 1a randomized, double-blind, placebo-controlled single ascending dose clinical trial was performed in 56 healthy human subjects to assess the safety, tolerability, and pharmacokinetics of APD371 (Compound B). Doses of 10 mg, 20 mg, 30 mg, 60 mg, 120 mg, 250 mg, and 400 mg were administered. Subjects were in the clinic for approximately 9 days (referred to as Day −2 to Day 7). Study medication (APD371 or placebo) was administered on Day 1. Each cohort included eight human subjects, six of whom were administered APD371 and two of whom were administered placebo.
as §3

[14] = tested on: mouse model for allergic contact dermatitis; details: subcutaneous injection; cited from earlier work
[15] = tested on: rats following ligation of spinal nerves; details: cited from earlier work
[16] = tested on: human skin; details: topical administration; cited from earlier work
[17] = tested on: bovine nasal cartilage explants; details: in vitro; cited from earlier work
[18] = tested on: RPE cells; details: cited from earlier work
[19] = tested on: human vagus nerve preparations; details: in vitro; cited from earlier work
[20] = tested on: guinea pig vagus nerve preparations; details: in vitro; cited from earlier work
[21] = tested on: models of inflammatory pain in rodents; details: systemic delivery; cited from earlier work
[22] = 50, 100, 200 mg TID for 10 days

T1 sequence (P34972 whole entry): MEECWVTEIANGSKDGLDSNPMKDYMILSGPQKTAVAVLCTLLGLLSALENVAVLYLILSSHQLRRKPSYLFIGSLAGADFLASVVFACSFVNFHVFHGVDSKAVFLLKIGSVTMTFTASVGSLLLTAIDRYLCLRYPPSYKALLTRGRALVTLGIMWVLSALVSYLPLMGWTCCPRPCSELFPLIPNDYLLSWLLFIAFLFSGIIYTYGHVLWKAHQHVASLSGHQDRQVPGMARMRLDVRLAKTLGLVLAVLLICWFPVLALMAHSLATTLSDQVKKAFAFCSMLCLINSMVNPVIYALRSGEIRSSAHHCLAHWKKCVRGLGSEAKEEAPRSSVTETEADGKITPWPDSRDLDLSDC
Sequence of rat CB2 receptor (Q9QZN9 whole entry): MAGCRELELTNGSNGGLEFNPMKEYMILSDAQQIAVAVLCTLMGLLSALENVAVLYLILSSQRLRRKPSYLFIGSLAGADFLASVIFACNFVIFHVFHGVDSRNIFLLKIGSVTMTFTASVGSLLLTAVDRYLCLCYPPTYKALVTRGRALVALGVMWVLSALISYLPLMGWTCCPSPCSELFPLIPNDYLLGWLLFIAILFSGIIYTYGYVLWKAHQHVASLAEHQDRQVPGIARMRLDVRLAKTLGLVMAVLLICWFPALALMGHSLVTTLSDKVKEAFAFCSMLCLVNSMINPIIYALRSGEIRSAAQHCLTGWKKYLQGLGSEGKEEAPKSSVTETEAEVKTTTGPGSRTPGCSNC

SR144528
blockade of the WIN 55212-2 effect on leukocyte rolling and adhesion [1]: blocked by the CB2-selective antagonist SR144528 | blockade of the THC effect on atherosclerosis ([2]; in vitro and in vivo): completely blocks this effect

CC(C)(C)[C@@H](CO)NC(=O)c1nn(-c2c[n+]([O-])ccn2)c2c1C[C@@H]1C[C@H]21 [APD371, (1aS,5aS)-2-(4-Oxy-pyrazin-2-yl)-1a,2,5,5a-tetrahydro-1H-2,3-diaza-cyclopropa[a]pentalene-4-carboxylic Acid ((S)-1-Hydroxymethyl-2,2-dimethyl-propyl)-amide]
efficacy in model of osteoarthritis pain ([3]; in vivo): sustained efficacy | duration of in vivo efficacy following dosing ([3]; osteoarthritis pain model): maintained in vivo efficacy for four hours following dosing | plasma concentrations ([3]; osteoarthritis pain model, following dosing): rapidly declining plasma concentrations | internalization of the CB2 receptor into cells [4]: high level of internalization | cardiovascular effects [5]: Cardiovascular effects were not seen | selectivity for the human CB2 receptor versus the human CB1 receptor [6]: > 1,000 fold | receptor internalization efficacy relative to CP55,940 [7]: 105% | receptor internalization efficacy relative to CP55,940 [8]: 96% | efficacy in model of paclitaxel-induced neuropathic pain [9]: sustained efficacy | efficacy in model of painful peripheral diabetic neuropathy [10]: sustained efficacy | agonist efficacy at the CB2 receptor [11]: full CB2 receptor agonist | exposure [12, 22]: Dose-responsive exposure was observed | most common adverse events [12, 22]: headache and nausea | serious adverse events [12, 22]: no serious adverse events reported | severity of adverse events [12, 22]: mild | tolerability [12, 22]: well tolerated with multiple dosing | drug levels relative to those needed to stimulate the CB2 receptor ([12]; all doses): well above those needed to stimulate the CB2 receptor | discontinuations ([12]; high-dose group): one discontinuation in the high-dose group due to an adverse event of mild thirst and somnolence | change in blood pressure ([12]; multiple ascending dose): asymptomatic reductions | change in heart rate ([12]; multiple ascending dose): asymptomatic reductions | systolic and diastolic blood pressure compared to baseline ([13]; single ascending dose): Variations were also seen | mean change in heart rate compared to baseline ([13]; single ascending dose, highest doses): increase in heart rate was seen at the highest doses; also recorded: asymptomatic mean increase in heart rate | exposure ([13]; single doses 10 mg to 400 mg): Dose-responsive exposure was observed | tolerability ([13]; single doses 10 mg to 400 mg): well tolerated

CCCCCc1cc(O)c2c(c1)OC(C)(C)[C@@H]1CCC(C)=C[C@@H]21 [THC]
severity of clinical disease [1]: significantly inhibits the severity of clinical disease | progression of atherosclerosis ([2]; mouse, in vivo): reduces the progression of atherosclerosis | cutaneous inflammation and pruritus (itch) [14]: reduces cutaneous inflammation and the pruritus (itch)

COc1ccc(C(=O)c2c(C)n(CCN3CCOCC3)c3cc(I)ccc23)cc1 [AM630]
effect on the AM1241 reversal of hypersensitivity ([15]; rat, in vivo): inhibited by treatment with the CB2-selective antagonist AM630

CCCCCCC(C)(C)c1cc(O)c2c(c1)OC(C)(C)[C@@H]1CC=C(CO)C[C@@H]21 [HU-210]
histamine-induced responses [16]: reduces these histamine-induced responses | IL-1alpha-stimulated proteoglycan and collagen degradation [17]: significantly inhibit

CCCCCCC(C)(C)c1ccc([C@@H]2C[C@H](O)CC[C@H]2CCCO)c(O)c1 [CP55,940]
protection from oxidative damage [18]: significantly protects RPE cells from oxidative damage | capsaicin-, PGE2-, and hypertonic saline-induced depolarization [19]: reduces capsaicin-, PGE2-, and hypertonic saline-induced depolarization | capsaicin-, PGE2-, and hypertonic saline-induced depolarization [20]: reduces capsaicin-, PGE2-, and hypertonic saline-induced depolarization

CN1CCCCC1Cn1cc(C(=O)c2cc([N+](=O)[O-])ccc2I)c2ccccc21 (centres unmarked) [AM1241]
hyperalgesia [21]: suppresses hyperalgesia | tactile and thermal hypersensitivity ([15]; local (subcutaneous) or systemic administration): reverses tactile and thermal hypersensitivity

COc1ccc2c(c1)c(CCN1CCOCC1)c(C)n2C(=O)c1cccc(Cl)c1Cl [GW405833]
hypersensitivity to mechanical stimuli ([15]; administered systemically): significantly reverses hypersensitivity to mechanical stimuli
